Experimental data from patent US20050197350A1, “Novel quinoline, tetrahydroquinazoline, and pyrimidine derivatives and methods of treatment related to the use thereof” (TAISHO PHARMACEUTICAL CO., LTD., priority 2003, published 2005).

Tested on: MCH receptors
Assay: MCH receptor activity class (method not given)
Details: class by percent of control at 10^-7 M or IC50

| SMILES | class |
| --- | --- |
| CN(C)c1ccnc(N[C@H]2CC[C@@H](NC(=O)Nc3ccc(Cl)cc3C(F)(F)F)CC2)n1 [compound 2207] | 3 (Class 3 The value of percent of control at 10^−7 M was more than 60% or the value of IC50 was more than 200 nM.) |
| CN(C)c1ccnc(N[C@H]2CC[C@@H](NC(=O)Nc3ccc(C#N)cc3)CC2)n1 [compound 2208] | 3 (Class 3 The value of percent of control at 10^−7 M was more than 60% or the value of IC50 was more than 200 nM.) |
| CN(C)c1ccnc(N[C@H]2CC[C@@H](NC(=O)NC(c3ccccc3)c3ccccc3)CC2)n1 [compound 2209, N-(cis-4-{[4-(dimethylamino)pyrimidin-2-yl]amino}cyclohexyl)-N′-(diphenylmethyl)urea] | 1 (Class 1: The value of percent of control at 10^−7 M was less than 40% or the value of IC50 was less than 50 nM.) |
| Cc1cc(Br)cc(C)c1NC(=O)N[C@H]1CC[C@@H](Nc2nccc(N(C)C)n2)CC1 [compound 2210, N-(4-bromo-2,6-dimethylphenyl)-N′-(cis-4-{[4-(dimethylamino)pyrimidin-2-yl]amino}cyclohexyl)urea] | 1 (Class 1: The value of percent of control at 10^−7 M was less than 40% or the value of IC50 was less than 50 nM.) |
| Cc1noc(-c2ccccc2)c1NC(=O)N[C@H]1CC[C@@H](Nc2nccc(N(C)C)n2)CC1 [compound 2211] | 3 (Class 3 The value of percent of control at 10^−7 M was more than 60% or the value of IC50 was more than 200 nM.) |
| Cc1cc(NC(=O)N[C@H]2CC[C@@H](Nc3nccc(N(C)C)n3)CC2)c(C(F)(F)F)o1 [compound 2212] | 3 (Class 3 The value of percent of control at 10^−7 M was more than 60% or the value of IC50 was more than 200 nM.) |
| CN(C)c1ccnc(N[C@H]2CC[C@@H](NC(=O)Nc3ccccc3Br)CC2)n1 [compound 2213] | 3 (Class 3 The value of percent of control at 10^−7 M was more than 60% or the value of IC50 was more than 200 nM.) |
| CN(C)c1ccnc(N[C@H]2CC[C@@H](NC(=O)Nc3ccccc3-c3ccccc3)CC2)n1 [compound 2214] | 3 (Class 3 The value of percent of control at 10^−7 M was more than 60% or the value of IC50 was more than 200 nM.) |
| CCCCNC(=O)N[C@H]1CC[C@@H](Nc2nccc(N(C)C)n2)CC1 [compound 2215] | 3 (Class 3 The value of percent of control at 10^−7 M was more than 60% or the value of IC50 was more than 200 nM.) |
| Cc1cccc(NC(=O)N[C@H]2CC[C@@H](Nc3nccc(N(C)C)n3)CC2)c1C [compound 2216] | 3 (Class 3 The value of percent of control at 10^−7 M was more than 60% or the value of IC50 was more than 200 nM.) |
| CCOC(=O)c1cccc(NC(=O)N[C@H]2CC[C@@H](Nc3nccc(N(C)C)n3)CC2)c1 [compound 2217] | 3 (Class 3 The value of percent of control at 10^−7 M was more than 60% or the value of IC50 was more than 200 nM.) |
| C=C(C)c1cccc(C(C)(C)NC(=O)N[C@H]2CC[C@@H](Nc3nccc(N(C)C)n3)CC2)c1 [compound 2218] | 3 (Class 3 The value of percent of control at 10^−7 M was more than 60% or the value of IC50 was more than 200 nM.) |
| CN(C)c1ccnc(N[C@H]2CC[C@@H](NC(=O)Nc3cccc4ccccc34)CC2)n1 [compound 2220] | 3 (Class 3 The value of percent of control at 10^−7 M was more than 60% or the value of IC50 was more than 200 nM.) |
| CN(C)c1ccnc(N[C@H]2CC[C@@H](NC(=O)NC3C[C@H]3c3ccccc3)CC2)n1 (stereo partly drawn) [compound 2221] | 3 (Class 3 The value of percent of control at 10^−7 M was more than 60% or the value of IC50 was more than 200 nM.) |
| CN(C)c1ccnc(N[C@H]2CC[C@@H](NC(=O)Nc3ccc(Oc4ccccc4)cc3)CC2)n1 [compound 2222] | 3 (Class 3 The value of percent of control at 10^−7 M was more than 60% or the value of IC50 was more than 200 nM.) |
| CCCCCNC(=O)N[C@H]1CC[C@@H](Nc2nccc(N(C)C)n2)CC1 [compound 2223] | 3 (Class 3 The value of percent of control at 10^−7 M was more than 60% or the value of IC50 was more than 200 nM.) |
| CC(NC(=O)NC1CCC(Nc2nccc(N(C)C)n2)CC1)c1ccccc1 (stereo not drawn) [compound 2227] | 3 (Class 3 The value of percent of control at 10^−7 M was more than 60% or the value of IC50 was more than 200 nM.) |
| CN(C)c1ccnc(N[C@H]2CC[C@@H](NC(=O)Nc3c(Cl)c(Cl)cc(Cl)c3Cl)CC2)n1 [compound 2228] | 3 (Class 3 The value of percent of control at 10^−7 M was more than 60% or the value of IC50 was more than 200 nM.) |
| CN(C)c1ccnc(N[C@H]2CC[C@@H](NC(=O)Nc3ccc(Br)cc3Br)CC2)n1 [compound 2229] | 3 (Class 3 The value of percent of control at 10^−7 M was more than 60% or the value of IC50 was more than 200 nM.) |
| CN(C)c1ccnc(N[C@H]2CC[C@@H](NC(=O)NCc3ccc(Cl)cc3Cl)CC2)n1 [compound 2230] | 3 (Class 3 The value of percent of control at 10^−7 M was more than 60% or the value of IC50 was more than 200 nM.) |
| COc1ccc(NC(=O)N[C@H]2CC[C@@H](Nc3nccc(N(C)C)n3)CC2)c(OC)c1 [compound 2231] | 3 (Class 3 The value of percent of control at 10^−7 M was more than 60% or the value of IC50 was more than 200 nM.) |
| CCOc1ccccc1NC(=O)N[C@H]1CC[C@@H](Nc2nccc(N(C)C)n2)CC1 [compound 2232] | 3 (Class 3 The value of percent of control at 10^−7 M was more than 60% or the value of IC50 was more than 200 nM.) |
| CN(C)c1ccnc(N[C@H]2CC[C@@H](NC(=O)NCc3ccccc3F)CC2)n1 [compound 2233] | 3 (Class 3 The value of percent of control at 10^−7 M was more than 60% or the value of IC50 was more than 200 nM.) |
| Cc1cc([N+](=O)[O-])ccc1NC(=O)N[C@H]1CC[C@@H](Nc2nccc(N(C)C)n2)CC1 [compound 2234] | 3 (Class 3 The value of percent of control at 10^−7 M was more than 60% or the value of IC50 was more than 200 nM.) |
| Cc1ccc([N+](=O)[O-])cc1NC(=O)N[C@H]1CC[C@@H](Nc2nccc(N(C)C)n2)CC1 [compound 2235] | 3 (Class 3 The value of percent of control at 10^−7 M was more than 60% or the value of IC50 was more than 200 nM.) |
| Cc1ccccc1CNC(=O)N[C@H]1CC[C@@H](Nc2nccc(N(C)C)n2)CC1 [compound 2236] | 3 (Class 3 The value of percent of control at 10^−7 M was more than 60% or the value of IC50 was more than 200 nM.) |
| CN(C)c1ccnc(N[C@H]2CC[C@@H](NC(=O)Nc3ccccc3[N+](=O)[O-])CC2)n1 [compound 2237] | 3 (Class 3 The value of percent of control at 10^−7 M was more than 60% or the value of IC50 was more than 200 nM.) |
| CN(C)c1ccnc(N[C@H]2CC[C@@H](NC(=O)Nc3ccc4c(c3)OCO4)CC2)n1 [compound 2238] | 3 (Class 3 The value of percent of control at 10^−7 M was more than 60% or the value of IC50 was more than 200 nM.) |
| COc1cc(NC(=O)N[C@H]2CC[C@@H](Nc3nccc(N(C)C)n3)CC2)cc(OC)c1OC [compound 2239, N-(cis-4-{[4-(dimethylamino)pyrimidin-2-yl]amino}cyclohexyl)-N′-(3,4,5-trimethoxyphenyl)urea] | 1 (Class 1: The value of percent of control at 10^−7 M was less than 40% or the value of IC50 was less than 50 nM.) |
| COc1ccc(NC(=O)N[C@H]2CC[C@@H](Nc3nccc(N(C)C)n3)CC2)cc1OC [compound 2240] | 3 (Class 3 The value of percent of control at 10^−7 M was more than 60% or the value of IC50 was more than 200 nM.) |
